pIC50: −log10 of the molar value. ≈ marks a conversion by molar mass, not a printed value. Entries after “also recorded” stand apart in the source; their conditions may differ.
Columns and labels:
[1] = tested on: T. gondii bradyzoites (EGS strain); assay: EGS strain bradyzoite assay (cysts in HFF, dolichos/BAG1 staining); type: cell-based, Toxoplasma gondii; details: 10 μM
Experimental: (§1) HFF cells were grown in IMDM (1×, [+] glutamine, [+] 25 mM HEPES, [+] Phenol red, 10% FBS, [Gibco, Denmark]) on removable, sterile glass disks in the bottom of a clear, flat-bottomed 24-well plate. Cultures were infected with 3×10^4 parasites (EGS strain) per well, in 0.5 mL media and plate was returned to incubator at 37° C. overnight. The following day, the media was removed and clear IMDM and compounds were added to making various concentrations of the drug, to a total volume of 0.5 mL. Two wells were filled with media only, as a control. Plates were returned to the 37° C. incubator for 72 hours.
Efficacy was determined following fixation. Staining was used to determine the numbers of cysts in cultures without and with treatment with the test compounds. Cells were fixed using 4% paraformaldehyde and stained with Fluorescein-labeled Dolichos Biflorus Agglutinin, DAPI, and anti-BAG1, and anti-SAG1. Disks were removed and mounted onto glass slides and visualized using microscopy (Nikon Tl7). Slides were also scanned using a CRi Pannoramic Scan Whole Slide Scanner and viewed using Panoramic Viewer Software.
as §1, with “[gibco,” for “[Gibco,”, “2” for “Two”, “72 hours, and checked once every 24” for “72”, “hours. If tachyzoites were visible in the control before 72 hours, the cells were fixed and stained.” for “hours.”
Cells were fixed using 4% paraformaldehyde and stained with Fluorescein-labeled Dolichos Biflorus Agglutinin, DAPI, and BAG1. Disks were removed and mounted onto glass slides and visualized using microscopy (Nikon Tl7). Slides were scanned using a CRi Pannoramic Scan Whole Slide Scanner and viewed using Panoramic Viewer Software. Effects of the compounds were quantified by counting cysts in the controls and treated cells. Cysts and persisting organisms were counted in a representative field of view and then multiplied by a factor determined by the total area of the disk in order to estimate the number of cysts and organisms in each condition.
HFF cells were grown in IMDM (1×, [+] glutamine, [+] 25 mM HEPES, [+] Phenol red, 10% FBS, [gibco, Denmark]) on removable, sterile glass disks in the bottom of a clear, flat-bottomed 24-well plate. Cultures were infected with 3×10^4 parasites (EGS strain) per well, in 0.5 mL media and plate was returned to incubator at 37° C. overnight. The following day, the media was removed and clear IMDM and compounds were added to making various concentrations of the drug, to a total volume of 0.5 mL. 2 wells were filled with media only, as a control. Plates were returned to the 37° C. incubator for 72 hours, and checked once every 24 hours. If tachyzoites were visible in the control before 72 hours, the cells were fixed and stained. Cells were fixed using 4% paraformaldehyde and stained with Fluorescein-labeled Dolichos Biflorus Agglutinin, DAPI, and BAG1. Disks were removed and mounted onto glass slides and visualized using microscopy (Nikon Tl7). Slides were scanned using a CRi Pannoramic Scan Whole Slide Scanner and viewed using Panoramic Viewer Software. Effects of the compounds were quantified by counting cysts in the controls and treated cells. Cysts and persisting organisms were counted in a representative field of view and then multiplied by a factor determined by the total area of the disk in order to estimate the number of cysts and organisms in each condition. Data was collected using Gen5 software. IC50 was calculated by graphical analysis in Excel.

[2] = Microsomal metabolic stability, mouse; type: in vitro ADME
[3] = tested on: S. cerevisiae wild type parental AD1-9 strain; assay: Yeast growth inhibition on glycerol medium, wild type; type: cell-based, Saccharomyces cerevisiae; details: 1 mM, 100, 5 and 1 μM
Experimental: Three S. cerevisiae strains were used: M221Q and M221F cytochrome b mutants and wild type. They share the same nuclear genetic background deriving from AD1-9 (kindly given by M. Ghislain, UCL, Belgium). AD1-9 harbors multiple deletions in the ABC transporter genes that render the strain more sensitive to drugs than standard yeast strains^S65.
Protocol: Yeast strains were grown over 48 hours at 33° C. in liquid YPG medium [1% yeast extract, 2% (wt/vol) peptone, and 3% (vol/vol) glycerol). Cultures were diluted to an OD600 of 0.05 and grown for 2 hrs. Cultures were then combined with YPG containing 6% melted agar for a total volume of 15-20 mL and poured onto OmniTray single-well rectangular plates that measured 86 mm by 128 mm (ThermoScientific). Filter paper disks (7 mm diameter, […]) were placed onto the cooled agar plates. […] A single disk with DMSO on each plate was used as a control. Plates were incubated at 33° C. Images were obtained after 4 days using GelDoc XR Imaging System (BioRad) and Quantity One software. Drug effect was assessed by the presence and size of a zone of inhibition around the disks.

[4] = Aqueous kinetic solubility pH 7.4; type: physicochemical; details: aqueous buffer, kinetic from dmso stock; 100 mM Phosphate Buffer (pH 7.4)
[5] = tested on: T. gondii tachyzoites (RH-YFP strain); assay: In vitro challenge assay for Toxoplasma tachyzoites (RH-YFP in HFF, fluorescence); type: cell-based, Toxoplasma gondii; details: Toxoplasma gondii; RH-YFP; read-out: Tachy IC50
Experimental: Human foreskin fibroblasts (HFF) were cultured on a flat, clear-bottomed, black 96-well plate to 90% to 100% confluence. IMDM (1×, [+] glutamine, [+] 25 mM HEPES, [+] Phenol red, 10% FBS [gibco, Denmark]) was removed from each well and replaced with IMDM-C (1×, [+] glutamine, [+] 25 mM HEPES, [−] Phenol red, 10% FBS)[Gibco, Denmark]). Type I RH parasites expressing Yellow Fluorescent Protein (RH-YFP) were lysed from host cells by double passage through a 27-gauge needle. Parasites were counted and diluted to 32,000/mL in IMDM-C. Fibroblast cultures were infected with 3200 tachyzoites of the Type I RH-YFP strain and returned to incubator at 37° C. for 1-2 hours to allow for infection. Diluted solutions of the compounds were made using IMDM-C, and 20 μl were added to each designated well, with triplicates for each condition. Controls included pyrimethamine/sulfadiazine (current standard of treatment), DMSO only, fibroblast only, and an untreated YFP gradient with 2 fold dilutions of the parasite. Cells were incubated at 37° C. for 72 hours. The plates were read using a fluorimeter (Synergy H4 Hybrid Reader, BioTek) To ascertain the amount of yellow fluorescent protein, in relative fluorescence units (RFU), as a measure of parasite burden after treatment. Compounds were not considered effective or pursued for further analysis if there were no signs of inhibition at 1 μM. Data was collected using Gen5 software and analyzed with Excel.
Protocol adapted from Fomovska, et. al. (18,19). Human foreskin fibroblasts (HFF) were cultured on a flat, clear-bottomed, black 96-well plate to 90% to 100% confluence. IMDM (1×, [+] glutamine, [+] 25 mM HEPES, [+] Phenol red, 10% FBS [gibco, Denmark]) was removed from each well and replaced with IMDM-C (1×, [+] glutamine, [+] 25 mM HEPES, [−] Phenol red, 10% FBS)[gibco, Denmark]). Type I RH parasites expressing Yellow Fluorescent Protein (RH-YFP) were lysed from host cells by double passage through a 27-gauge needle. Parasites were counted and diluted to 32,000/mL in IMDM-C. Fibroblast cultures were infected with 3200 tachyzoites of the Type I RH strain expressing Yellow Fluorescent Protein (RH-YFP) and returned to incubator at 37° C. for 1-2 hours to allow for infection (15). Various concentrations of the compounds were made using IMDM-C, and 20 μl were added to each designated well, with triplicates for each condition. Controls included pyrimethamine/sulfadiazine (current standard of treatment), 0.1% DMSO only, fibroblast only, and an untreated YFP gradient with 2 fold dilutions of the parasite. Cells were incubated at 37° C. for 72 hours. Plates were read using a fluorimeter (Synergy H4 Hybrid Reader, BioTek) to ascertain the amount of yellow fluorescent protein, in relative fluorescence units (RFU), as a measure of parasite burden after treatment. Data was collected using Gen5 software. IC50 was calculated by graphical analysis in Excel.
An initial screening assay of 10 μM, 1 μM, 100 nM, and 10 nM was performed. Compounds were not considered effective or pursued for further analysis if there were no signs of inhibition of tachyzoites at 1 μM. If compounds did appear to be effective at 1 μM, another experiment was conducted to assess effect at 1 μM, 500 nM, 250 nM, 125 nM, 62.5 nM, and 31.25 nM.
Protocol adapted from Fomovska, et. al. (Fomovska A, Huang Q, El Bissati K, Mui E J, Witola W H, Cheng G, et al. Novel N-Benzoyl-2-Hydroxybenzamide Disrupts Unique Parasite Secretory Pathway. Antimicrob Agents Chemother [Internet]. 2012 May [cited 2015 Jul. 8]; 56(5):2666-82; Fomovska A, Wood R D, Mui E, Dubey J P, Ferreira L R, Hickman M R, et al. Salicylanilide inhibitors of Toxoplasma gondii. J Med Chem. 2012 Oct. 11; 55(19):8375-91.). Human foreskin fibroblasts (HFF) were cultured on a flat, clear-bottomed, black 96-well plate to 90% to 100% confluence. […]

[6] = target: T1, Plasmodium falciparum bc1 complex cytochrome c reductase (Pfbc1) (Plasmodium falciparum, UniProt Q02768); assay: Pfbc1 native assay (cytochrome c reduction by parasite extract); type: biochemical; details: compound 1 μM; mean ± s.e.m. of 4 independent experiments
T1 construct: Parasite extract was then prepared by disruption with a sonicating probe; endogenous in cells; host or cells: P. falciparum 3D7 blood-stage parasites, saponin-freed and sonicated (crude parasite extract)
T1 sequence (Q02768 1-376): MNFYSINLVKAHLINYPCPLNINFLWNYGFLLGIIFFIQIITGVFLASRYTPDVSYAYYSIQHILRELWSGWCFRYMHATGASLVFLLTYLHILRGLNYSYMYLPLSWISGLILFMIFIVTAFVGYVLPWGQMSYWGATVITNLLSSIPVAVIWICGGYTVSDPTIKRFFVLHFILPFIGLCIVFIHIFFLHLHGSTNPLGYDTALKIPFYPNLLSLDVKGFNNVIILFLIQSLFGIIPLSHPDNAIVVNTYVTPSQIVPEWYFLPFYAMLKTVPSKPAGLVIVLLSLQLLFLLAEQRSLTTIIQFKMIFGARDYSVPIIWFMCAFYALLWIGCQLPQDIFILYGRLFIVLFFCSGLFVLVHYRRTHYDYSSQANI
Experimental: Plasmodium falciparum: 3D7 strain was obtained from the Liverpool School of Tropical Medicine. Protease cocktail inhibitor was obtained from Roche. Bradford protein assay dye reagent was obtained from Bio-Rad. All other reagents were obtained from Sigma-Aldrich. Decylubiquinol was produced as per Fisher et al. (Fisher et al. 2004)^21. In brief, 25 mg of decylubiquinone were dissolved in 400 μl of nitrogen-saturated hexane. An equal volume of aqueous 1 M sodium dithionite was added, and the mixture vortexed until colorless. The organic phase containing the decylubiquinol was collected, the solvent was evaporated under N2 and the decylubiquinol finally dissolved in 100 μl of 96% ethanol (acidified with 10 mM HCl). Concentrations of decylubiquinol was determined spectrophotometrically on a Cary 300 Bio UV/visible spectrophotometer (Varian, UK) from absolute spectra, using ε288-320=8.1 mM-1·cm^−1. Decylubiquinol was stored at −80° C. and used within two weeks.
The protocol for the preparation of parasite extract was adapted from Fisher et al. (Fisher et al. 2009)^22. Free parasites were prepared from infected erythrocytes pooled from five T75 flasks, by adding 5 volumes of 0.15% (w/v) saponin in phosphate-buffered saline (137 mM NaCl, 2.7 mM KCl, 1.76 mM K2HPO4, 8.0 mM Na2HPO4, 5.5 mM D-glucose, pH 7.4) for 5 min, followed by three washes by centrifugation in RPMI containing HEPES (25 mM), and a final resuspension in potassium phosphate buffer (50 mM K2HPO4, 50 mM KH2PO4, 2 mM EDTA, pH7.4) containing a protease inhibitor cocktail (Complete Mini; Roche). Parasite extract was then prepared by disruption with a sonicating probe for 5 s, followed by a 1 min rest period on ice to prevent the sample overheating. […] The protein concentration of the parasite extract was determined by Bradford protein assay (Bio-Rad).
Plasmodium falciparum bc1 complex cytochrome c reductase (Pfbc1) activity was measured by monitoring cytochrome c reduction at 550 versus 542 nm using a Cary 300 Bio UV-Visible Spectrophotometer (Varian, UK), using a protocol adapted from Fisher et al. (Fisher et al. 2009)^21-23. […]

Row | SMILES | reduction of EGS cysts in vitro [1] | Mouse liver microsomes T1/2 [2] [h] | growth inhibition of wild type yeast [3] | solubility [4] [µM] | pIC50 [5] | Inhibition of cytochrome c reduction (% atovaquone response) [6] [% atovaquone response]
1 | Cc1[nH]c2ccccc2c(=O)c1-c1ccc(Oc2ccc(OC(F)(F)F)cc2)cc1 [ELQ271, 2-methyl-3-(4-(4-(trifluoromethoxy)phenoxy)phenyl) quinolin-4(1H)-one, reference compound] | reduce the EGS cysts; also recorded: inhibited EGS in vitro | 7.4688 | effective | 0.15 (≈ 0.0617 µg/mL) |  | 
2 | O=c1c2c([nH]c(CO)c1-c1ccc(Oc3ccc(OC(F)(F)F)cc3)cc1)CCCC2 [JAG099, 3(4-(4-Trifluoromethoxyphenoxy)phenyl)-2-(methylhydroxy)-5,6,7,8-tetrahydroquinolin-4(1H)-one] |  |  |  |  | 6.49 | 81.3 ± 6.0

— patent publication US11414385B2, “Compounds and methods for treating, detecting, and identifying compounds to treat apicomplexan parasitic diseases” (The University of Chicago, priority 2015, dated 2022)
